In patent US7713994B2 (Wyeth LLC, priority 2005, dated 2010):
Like-named read-outs stand apart in the source and are kept apart here.

Columns and labels:
cyclin B/CDK1 enzyme = molecular target: T1, cyclin B/CDK1 enzyme (Homo sapiens, UniProt P06493); experiment: CDK1 ELISA kinase assay (phospho-Rb ser 795 detection); format: biochemical
T1 construct: purchased New England BioLabs; host or cells: Sf9 insect cells, recombinant baculovirus
How it was run: (§1)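 Partially purified Sf9-expressed cyclin D1/CDK4, cyclin E/CDK2 or cyclin B/CDK1 phosphorylated plate-bound GST-Rb C-terminal fragment with 200 μM ATP at 30° C for 1 h.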

HCT-116 = experiment: Cytotoxicity assay (SRB), HCT-116; format: cell-based; details: Homo sapiens, HCT-116, 72 h, read-out: In Vitro Cellular Activity IC50 HCT116
How it was run: (§2)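 BT474 (12000 cells/well) was treated for 6 days, whereas HCT-116 (4000), LoVo (6000) and MCF-7 (6000) were treated for 3 days, all in RPMI 1640 containing 5% FBS. Surviving-cell percentage came from SRB dye binding measured at 540 nm.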

LoVo = experiment: Cytotoxicity assay (SRB), LoVo; format: cell-based; details: Homo sapiens, LoVo, 72 h, read-out: In Vitro Cellular Activity IC50 LOVO
How it was run: as §2

MCF-7 = experiment: Cytotoxicity assay (SRB), MCF-7; format: cell-based; details: Homo sapiens, MCF7, 72 h, read-out: In Vitro Cellular Activity IC50 MCF-7
How it was run: as §2

BT474 = experiment: Cytotoxicity assay (SRB), BT474; format: cell-based; details: Homo sapiens, BT-474, 144 h, read-out: In Vitro Cellular Activity IC50 BT474
How it was run: as §2

cyclin D1/cdk 4 enzyme = molecular target: T2, cyclin D1/cdk 4 enzyme (Homo sapiens, UniProt P11802); experiment: CDK4 ELISA kinase assay (phospho-Rb ser 795 detection); format: biochemical; details: 200 μM ATP
T2 construct: made in house; host or cells: Sf9 insect cells, recombinant baculovirus
How it was run: as §1

cyclin E/CDK2 enzyme = molecular target: T3, cyclin E/CDK2 enzyme (Homo sapiens, UniProt P24941); experiment: CDK2 ELISA kinase assay (phospho-Rb ser 795 detection); format: biochemical; details: In Vitro Enzyme Assays, read-out: CDK2 IC50
T3 construct: made in house; host or cells: Sf9 insect cells, recombinant baculovirus
How it was run: as §1

[1] = In Vitro Enzyme Assays, read-out: CDK1 IC50
[2] = In Vitro Enzyme Assays, read-out: CDK4 IC50
[3] = CDK1 IC50, In Vitro Enzyme Assays
[4] = CDK4 IC50, In Vitro Enzyme Assays

T1 sequence (P06493 whole entry): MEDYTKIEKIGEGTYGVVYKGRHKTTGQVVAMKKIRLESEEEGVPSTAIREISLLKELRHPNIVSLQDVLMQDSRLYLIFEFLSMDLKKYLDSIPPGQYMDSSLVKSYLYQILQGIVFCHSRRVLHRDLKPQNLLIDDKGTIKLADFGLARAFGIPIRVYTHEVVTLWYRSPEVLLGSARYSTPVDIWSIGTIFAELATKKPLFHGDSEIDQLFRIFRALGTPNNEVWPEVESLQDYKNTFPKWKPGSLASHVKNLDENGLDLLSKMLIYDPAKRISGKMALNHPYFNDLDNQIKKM
T1 sequence (P14635 whole entry partner): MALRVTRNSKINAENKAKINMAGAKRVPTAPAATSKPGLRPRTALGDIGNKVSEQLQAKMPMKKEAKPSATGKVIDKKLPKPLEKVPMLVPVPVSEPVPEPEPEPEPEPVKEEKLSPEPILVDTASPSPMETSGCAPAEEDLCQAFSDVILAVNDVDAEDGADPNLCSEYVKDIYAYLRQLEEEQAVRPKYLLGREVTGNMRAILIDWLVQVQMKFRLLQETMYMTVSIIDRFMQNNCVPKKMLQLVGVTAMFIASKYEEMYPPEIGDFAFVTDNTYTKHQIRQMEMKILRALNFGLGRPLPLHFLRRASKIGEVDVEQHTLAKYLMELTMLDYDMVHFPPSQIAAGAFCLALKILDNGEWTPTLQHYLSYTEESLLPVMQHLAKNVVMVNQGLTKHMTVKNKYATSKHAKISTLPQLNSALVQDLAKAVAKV
T2 sequence (P11802 whole entry, species assumed): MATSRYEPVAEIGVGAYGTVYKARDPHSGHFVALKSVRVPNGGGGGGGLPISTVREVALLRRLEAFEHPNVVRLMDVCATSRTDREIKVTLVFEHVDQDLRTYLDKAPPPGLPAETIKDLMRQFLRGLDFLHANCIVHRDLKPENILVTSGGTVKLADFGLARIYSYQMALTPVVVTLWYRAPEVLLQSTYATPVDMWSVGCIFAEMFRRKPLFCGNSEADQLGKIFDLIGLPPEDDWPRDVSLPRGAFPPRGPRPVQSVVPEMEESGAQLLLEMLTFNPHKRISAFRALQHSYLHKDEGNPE
T2 sequence (P24385 whole entry partner, species assumed): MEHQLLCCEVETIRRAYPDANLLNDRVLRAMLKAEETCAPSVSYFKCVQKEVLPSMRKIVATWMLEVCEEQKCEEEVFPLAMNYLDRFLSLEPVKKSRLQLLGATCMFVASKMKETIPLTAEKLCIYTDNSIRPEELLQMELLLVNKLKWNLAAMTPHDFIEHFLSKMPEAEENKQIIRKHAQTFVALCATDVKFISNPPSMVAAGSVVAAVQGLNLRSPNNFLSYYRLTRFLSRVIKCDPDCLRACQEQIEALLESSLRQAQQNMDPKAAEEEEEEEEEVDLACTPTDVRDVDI

| Structure (SMILES) | IC50 (cyclin B/CDK1 enzyme; [1]) [µM] | IC50 (HCT-116; HCT116 cells, SRB, three days) [µM] | IC50 (LoVo; LoVo cells, SRB, three days) [µM] | IC50 (MCF-7; MCF-7 cells, SRB, three days) [µM] | IC50 (BT474; BT474 cells, SRB, 6 days) [µM] | IC50 (cyclin D1/cdk 4 enzyme; [2]) [µM] | IC50 (cyclin E/CDK2 enzyme) [µM] | IC50 (HCT-116) [µM] | IC50 (LoVo) [µM] | IC50 (MCF-7) [µM] | IC50 (BT474) [µM] | IC50 (cyclin B/CDK1 enzyme; [3]) [µM] | IC50 (cyclin D1/cdk 4 enzyme; [4]) [µM] |
| --- | --- | --- | --- | --- | --- | --- | --- | --- | --- | --- | --- | --- | --- |
| CN1CCN(CCCNC=C2C(=O)NC(=O)c3ccc(-n4cccc4)cc32)CC1 [Example 279, 4-{[3-(4-Methyl-piperazin-1-yl)-propylamino]-methylene}-6-pyrrol-1-yl-4H-isoquinoline-1,3-dione] | > 50 | 10 | 11 | 5.3 | 6 | 0.19 | > 50 |  |  |  |  |  |  |
| CN(C)NC(=O)c1ccc(N/C=C2\C(=O)NC(=O)c3ccc(Br)cc32)cc1 [Example 280, 4-{[(Z)-(6-Bromo-1,3-dioxo-2,3-dihydroisoquinolin-4(1H)-ylidene)methyl]amino}-N′,N′-dimethylbenzohydrazide] | > 50 | 21 | 32 | 17 | 28 | 29 | 4.5 |  |  |  |  |  |  |
| CN(C)NC(=O)Cc1ccc(N/C=C2\C(=O)NC(=O)c3ccc(Br)cc32)cc1 [Example 283, 2-(4-{[(Z)-(6-Bromo-1,3-dioxo-2,3-dihydroisoquinolin-4(1H)-ylidene)methyl]amino}phenyl)-N′,N′-dimethylacetohydrazide] | > 50 |  |  |  |  | 10 | > 50 | 17 | 17 | 9.8 | 16 |  |  |
| COC[C@@H]1CCCN1Cc1ccc(N/C=C2\C(=O)NC(=O)c3ccc(I)cc32)cc1 [Example 285, (4Z)-6-Iodo-4-{[(4-{[(2S)-2-(methoxymethyl)pyrrolidin-1-yl]methyl}phenyl)amino]methylene}isoquinoline-1,3(2H,4H)-dione] | > 50 | 3.6 | 3.6 | 0.79 | 0.37 | 0.76 | > 50 |  |  |  |  |  |  |
| CCCOc1ccc(CN/C=C2\C(=O)NC(=O)c3ccc(I)cc32)cc1OC(=O)CCl [Example 293, 5-({[(Z)-(6-Iodo-1,3-dioxo-2,3-dihydroisoquinolin-4(1H)-ylidene)methyl]amino}methyl)-2-propoxyphenyl chloroacetate] | > 50 | 0.78 | 0.9 | 2.2 | 0.69 | 13.8 | > 50 |  |  |  |  |  |  |
| CN1CCN(c2ccc(N/C=C3\C(=O)NC(=O)c4ccc(-c5ccc(OC(F)(F)F)cc5)cc43)cc2)CC1 [Example 298, (4Z)-4-({[4-(4-Methylpiperazin-1-yl)phenyl]amino}methylene)-6-[4-(trifluoromethoxy)phenyl]isoquinoline-1,3(2H,4H)-dione] | 40.6 | 2.1 | 9.8 | 2.8 | 6.3 | 29 | > 50 |  |  |  |  |  |  |
| C=CC(=O)Nc1ccc(CN/C=C2\C(=O)NC(=O)c3ccc(Br)cc32)cc1O [Example 301, N-[4-({[(Z)-(6-Bromo-1,3-dioxo-2,3-dihydroisoquinolin-4(1H)-ylidene)methyl]amino}methyl)-2-hydroxyphenyl]acrylamide] | > 50 | 0.17 | 0.17 | 0.2 | 0.14 | 0.09 | 8.4 |  |  |  |  |  |  |
| CC(C)[Si](Oc1cc(CN/C=C2\C(=O)NC(=O)c3ccc(Br)cc32)ccc1N)(C(C)C)C(C)C [Example 303, (4Z)-4-[({4-Amino-3-[(triisopropylsilyl)oxy]benzyl}amino)methylene]-6-bromoisoquinoline-1,3(2H,4H)-dione] |  | 5.3 | 4.6 | 10 | 3.1 |  | 3.7 |  |  |  |  | 33.9 | 0.39 |
| CN(C)CCCCCN/C=C1\C(=O)NC(=O)c2ccc(Br)cc21 [Example 304, (Z)-6-Bromo-4-((5-(dimethylamino)pentylamino)methylene)isoquinoline-1,3(2H,4H)-dione] | > 50 | 13 | 6.7 | 7.1 | 16 | 1.5 | 36.3 |  |  |  |  |  |  |
| CN(C)CCCCN/C=C1\C(=O)NC(=O)c2ccc(Br)cc21 [Example 305, (Z)-6-Bromo-4-((4-(dimethylamino)butylamino)methylene)isoquinoline-1,3(2H,4H)-dione] | > 50 | 21 | 14 | 18 | 23 | 1.7 | 39.7 |  |  |  |  |  |  |
| CN(C)CCCN/C=C1\C(=O)NC(=O)c2ccc(Br)cc21 [Example 306, (Z)-6-Bromo-4-((3-(dimethylamino)propylamino)methylene)isoquinoline-1,3(2H,4H)-dione] | > 50 | 26 | 13 | 25 | 37 | 6.7 | > 50 |  |  |  |  |  |  |
| O=C1NC(=O)c2ccc(Br)cc2/C1=C/NCCN1CCNCC1 [Example 307, (Z)-6-Bromo-4-((2-(piperazin-1-yl)ethylamino)methylene)isoquinoline-1,3(2H,4H)-dione] | > 50 | 23 | 28 | 25 | 46 | 9.8 | 38 |  |  |  |  |  |  |
| CCN(CC)CCCCN/C=C1\C(=O)NC(=O)c2ccc(Br)cc21 [Example 308, (Z)-6-Bromo-4-((4-(diethylamino)butylamino)methylene)isoquinoline-1,3(2H,4H)-dione] | > 50 | 21 | 16 | 23 | 23 | 2.6 | > 50 |  |  |  |  |  |  |
| O=C1NC(=O)c2ccc(Br)cc2/C1=C/NCCCN1CCCC1 [Example 309, (Z)-6-Bromo-4-((3-(pyrrolidin-1-yl)propylamino)methylene)isoquinoline-1,3(2H,4H)-dione] | > 50 | 26 | 15 | 20 | 26 | 14.7 | > 50 |  |  |  |  |  |  |
| O=C1NC(=O)c2ccc(Br)cc2/C1=C/NCCCN1CCOCC1 [Example 310, (Z)-6-Bromo-4-((3-morpholinopropylamino)methylene)isoquinoline-1,3(2H,4H)-dione] | > 50 | 21 | 17 | 11 | 27 | 9.4 | > 50 |  |  |  |  |  |  |
| O=C1NC(=O)c2ccc(Br)cc2/C1=C/NCCCN1CCCC1=O [Example 311, (Z)-6-Bromo-4-((3-(2-oxopyrrolidin-1-yl)propylamino)methylene)isoquinoline-1,3(2H,4H)-dione] | > 50 | 29 | 19 | 13 | 38 | 8.6 | > 50 |  |  |  |  |  |  |
| O=C1NC(=O)c2ccc(Br)cc2/C1=C/NCc1ccc(NC(=O)C(Cl)Cl)c(O)c1 [Example 320, N-[4-({[(Z)-(6-Bromo-1,3-dioxo-2,3-dihydroisoquinolin-4(1H)-ylidene)methyl]amino}methyl)-2-hydroxyphenyl]-2,2-dichloroacetamide] | 6.8 | 2.1 | 4.5 | 4.9 | 2 | 0.12 | 4 |  |  |  |  |  |  |
| CCC(=O)Nc1ccc(CN/C=C2\C(=O)NC(=O)c3ccc(Br)cc32)cc1 [Example 321] | > 50 | 1.2 | 4.4 | 10 | 0.84 | > 50 | 3.6 |  |  |  |  |  |  |
| C=CC(=O)Nc1ccc(CN/C=C2\C(=O)NC(=O)c3ccc(Br)cc32)cc1 [Example 322, N-[4-({[(Z)-(6-Bromo-1,3-dioxo-2,3-dihydroisoquinolin-4(1H)-ylidene)methyl]amino}methyl)phenyl]acrylamide] | > 50 |  |  |  |  | > 50 | 7.8 | 0.25 | 0.24 | 0.24 | 0.11 |  |  |
| CC(C)[Si](Oc1cc(CN/C=C2\C(=O)NC(=O)c3ccc(I)cc32)ccc1N)(C(C)C)C(C)C [Example 323, (4Z)-4-[({4-Amino-3-[(triisopropylsilyl)oxy]benzyl}amino)methylene]-6-iodoisoquinoline-1,3(2H,4H)-dione] |  | 22 | > 50 | 10 | 18.3 |  | 42.5 |  |  |  |  | > 50 | 1.9 |
